Source: PMC10820097, “Benzofuran Derivatives from Cortex Mori Radicis and Their Cholinesterase-Inhibitory Activity” (Molecules, 2024)
Values joined by “and” are separate entries in the source; they are usually repeats but may differ in a detail not shown here. Equal values may be shown once. Read-outs that look alike come from different tables or passages of the source.

Experiments:
AChE (EC 3.1.1.7) = biological target: T1, AChE (EC 3.1.1.7) (Electrophorus electricus, UniProt O42275); assay: biochemical; type: biochemical; conditions: for IC50: sample concentration that led to 50% enzyme activity loss, mean ± SD, triplicate
T1 construct: AChE (EC 3.1.1.7, from electric eel); purchased Aladdin Industrial Co., Ltd. (Shanghai, China); host or cells: electric eel (natural source)
Method: (§1) AChE (EC 3.1.1.7, from electric eel), BChE (EC 3.1.1.8, from equine serum), acetylthiocholine iodide (ATCI), butyrylthiocholine iodide (BTCI), and 5,5′-dithiobis (2-nitrobenzoic acid) (DTNB) were purchased from Aladdin Industrial Co., Ltd. (Shanghai, China).
(§2) Briefly, AChE and BChE solutions (0.2 units/mL) and ATCI, BTCI, and DTNB solutions (10 mM) were prepared in PBS solution (0.1 M, pH 8.0). The test compound stock solutions (10 mM) were made using methanol, and five different concentrations of each compound were prepared by doubling the dilution with methanol to determine the half-maximal inhibitory concentration (IC50). Firstly, 160 μL of PBS, 2 μL of the test samples, 20 μL of AChE or BChE, and 10 μL of DTNB were mixed and preincubated at 37 °C for 10 min. Thereafter, 10 μL of ATCI or BTCI was added to initiate the reaction, which was incubated at 37 °C for 25 min. The absorbance was measured at 412 nm during incubation. The inhibition rate was calculated using the following formula: IR% = [(Ac − As)]/(Ac − Ab] × 100%, where Ab denotes the absorbance of the blank control (20 μL of water replacing the enzyme solution), Ac represents the absorbance of the control (2 μL of methanol replacing the sample solutions), and As denotes the absorbance of the sample. All of the tests for each sample were performed in triplicate. The IC50 value of each compound was obtained by plotting the inhibition rate against the logarithm of its concentration, and the data were expressed as the mean ± SD.

BChE (EC 3.1.1.8) [1] = biological target: T2, BChE (EC 3.1.1.8) (Equus caballus, UniProt P81908); assay: BChE inhibitory activity assay (modified Ellman's method); type: biochemical; conditions: for IC50: sample concentration that led to 50% enzyme activity loss, mean ± SD, triplicate; for BChE inhibitory effect, in words: up to 100 μM where stated
T2 construct: BChE (EC 3.1.1.8, from equine serum); purchased Aladdin Industrial Co., Ltd. (Shanghai, China); host or cells: equine serum (natural source)
Method: as §1, §2

BChE (EC 3.1.1.8) [2] = biological target: T2, BChE (EC 3.1.1.8); assay: Kinetic study of BChE inhibition (Lineweaver–Burk and secondary plots); type: biochemical; conditions: for BChE Inhibition Type: Lineweaver–Burk plots; for BChE αKi: from secondary plot of 1/Vmax vs [I], binding to ES complex; for BChE α (thermodynamic cooperativity factor): αKi/Ki
Method: To determine the inhibition modes of the compounds, enzyme kinetic studies were carried out for the structurally representative inhibitors, namely, compounds 1, 8, 9, 11, and 14. […] For this type of interaction, inhibitors can bind to the free enzyme (E) and the enzyme–substrate (ES) complex, forming EI and ESI complexes, respectively. The Ki and αKi values for the inhibitors were determined from the secondary plots of the slope (Km/Vm) and the vertical intercept (1/Vm) from the Lineweaver–Burk plot as functions of the inhibitor concentration, respectively (Figure S2 in Supplementary Materials), and the thermodynamic cooperativity factor α differed among the five structurally diverse inhibitors (Table 3).
as §1
Using the same protocol as the inhibitory activity assay, kinetic studies of BChE inhibition were performed with a series of concentrations of substrate BTCI, namely, 0.1, 0.2, 0.3, 0.4, and 0.5 mM or 0.2, 0.4, 0.5, 0.6, and 0.7 mM. Three concentrations of each test compound were selected according to the IC50 value. The detection of absorbance was conducted during the enzymatic reaction at 10 min, 20 min, and 25 min. The change in absorbance per minute was referred to as the velocity of the enzyme-promoting reaction. The Lineweaver–Burk plots (double-reciprocal plots) were created by plotting the reciprocal of velocity (1/V) against the reciprocal of BTCI concentration (1/[BTCI]) for a compound at three concentrations, and the kinetic parameters, Michaelis constant (Km), and maximum velocity (Vmax) obtained therefrom were used to check the inhibition modes. The value of the inhibitor constant Ki was determined by referencing the secondary plot of the slope of the double-reciprocal lines (from the Lineweaver–Burk plot) as a function of [I], and the x intercept was equal to −Ki. Another secondary plot was fitted by 1/Vmax as a function of the inhibitor concentration [I], and the value of −αKi can be determined to be the x intercept therefrom.

[3] = cis-trans photoisomerization under UV exposure (HPLC detection); type: physicochemical; conditions: UV exposure at 254 and 365 nm
Excerpt: The NMR data of 6 (Table 1 and Table 2) were identical to those of nigranol A previously isolated from Morus nigra Linn. The Δ7,8 double bond of nigranol A was formerly determined to be a Z-configuration according to the relatively large coupling constant (12.8 Hz) between H-8 and H-9, which is not applicable and convincing in view of the freely rotating single bond between C-8 and C-9. […] Fortunately, the crystals of compounds 1 and 6 were obtained, and single-crystal X-ray diffraction (XRD) analyses were conducted to determine the configuration of the Δ7,8 double bond. As a result, the isobutene moiety (C-9) and the carbonyl group (C-13), the larger substituent groups for C-8 and C-7, respectively, existed in cis- and trans-conformations in compounds 1 and 6, respectively (Figure 3). Therefore, compound 1 was determined to be (Z)-6-hydroxy-3-(3-methylbut-2-en-1-ylidene)benzofuran-2(3H)-one and named albaphenol A, while nigranol A (6) was revised as (E)-6-hydroxy-3-(3-methylbut-2-en-1-ylidene)benzofuran-2(3H)-one. […] Due to the cis–trans tautomerism also taking place slowly under natural light, the samples were stored in a 4 °C refrigerator under dark conditions, and the crystallizations of the two compounds were induced in nearly saturated methanol solution under the same conditions.

BChE [4] = tested on: BChE; design: method as in PMID 29786669; conditions: read-out: BChE IC50 in previous research; cited from earlier work
BChE [5] = tested on: BChE; design: method as in PMID 31459768; conditions: cited from earlier work
[6] = from secondary plot of slope of Lineweaver–Burk lines vs [I], binding to free enzyme, read-out: BChE Ki

T2 sequence (P81908 whole entry): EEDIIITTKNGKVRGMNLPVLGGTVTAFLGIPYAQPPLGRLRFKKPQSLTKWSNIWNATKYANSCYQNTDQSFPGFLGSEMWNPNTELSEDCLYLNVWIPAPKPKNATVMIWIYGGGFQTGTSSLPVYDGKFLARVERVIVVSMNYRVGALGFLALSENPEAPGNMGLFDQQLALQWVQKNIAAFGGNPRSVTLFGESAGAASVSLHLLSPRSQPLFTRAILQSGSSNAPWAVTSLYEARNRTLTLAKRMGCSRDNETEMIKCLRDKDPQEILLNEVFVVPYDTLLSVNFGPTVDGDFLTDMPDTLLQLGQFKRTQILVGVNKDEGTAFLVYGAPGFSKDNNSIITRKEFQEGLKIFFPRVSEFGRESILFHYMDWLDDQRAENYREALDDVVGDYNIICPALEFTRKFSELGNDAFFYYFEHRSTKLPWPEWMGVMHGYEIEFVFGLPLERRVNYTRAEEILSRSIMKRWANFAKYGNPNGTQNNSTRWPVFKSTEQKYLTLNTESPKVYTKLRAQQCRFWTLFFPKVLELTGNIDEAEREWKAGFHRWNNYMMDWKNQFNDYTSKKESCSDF
T1 sequence (O42275 24-633): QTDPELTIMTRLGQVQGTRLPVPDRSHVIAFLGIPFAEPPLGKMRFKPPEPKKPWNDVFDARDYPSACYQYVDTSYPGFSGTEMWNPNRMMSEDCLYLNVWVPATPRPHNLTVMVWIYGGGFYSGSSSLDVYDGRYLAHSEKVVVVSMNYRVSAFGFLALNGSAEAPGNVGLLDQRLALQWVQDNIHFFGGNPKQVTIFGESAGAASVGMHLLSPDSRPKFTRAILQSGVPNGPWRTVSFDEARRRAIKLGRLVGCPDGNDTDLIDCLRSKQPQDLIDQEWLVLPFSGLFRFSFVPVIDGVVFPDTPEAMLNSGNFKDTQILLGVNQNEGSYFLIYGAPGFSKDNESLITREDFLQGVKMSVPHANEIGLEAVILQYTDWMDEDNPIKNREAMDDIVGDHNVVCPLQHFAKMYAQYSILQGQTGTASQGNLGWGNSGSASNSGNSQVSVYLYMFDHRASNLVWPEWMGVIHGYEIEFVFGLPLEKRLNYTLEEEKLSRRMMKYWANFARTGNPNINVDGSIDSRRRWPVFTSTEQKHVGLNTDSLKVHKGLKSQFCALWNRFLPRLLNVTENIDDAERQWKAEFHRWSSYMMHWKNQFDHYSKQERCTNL

## CC(C)=C/C=C1\C(=O)Oc2cc(O)ccc21 [Compound 1, (Z)-6-hydroxy-3-(3-methylbut-2-en-1-ylidene)benzofuran-2(3H)-one]
AChE (EC 3.1.1.7)
  IC50: > 100 µM
BChE (EC 3.1.1.8) [1]; read-out: IC50 BChE
  IC50: 45.5 ± 5.9 µM
BChE (EC 3.1.1.8) [2]
  BChE Inhibition Type: Mixed uncompetitive
  BChE αKi: 43.0 µM
  BChE α (thermodynamic cooperativity factor): 0.46
BChE (EC 3.1.1.8) [2]; [6]
  Ki: 93.4 µM
[3]
  time to almost reach equilibrium of cis-trans photoisomerization (1 and 6, ratio approximately 1:1): ≤ 30 min

## COC(=O)/C(=C/C=C(C)C)c1ccc(O)cc1O [Compound 2, albaphenol B]
AChE (EC 3.1.1.7)
  IC50: > 100 µM
BChE (EC 3.1.1.8) [1]; read-out: IC50 BChE
  IC50: > 100 µM

## COC(=O)C(CC=C(C)C)c1ccc(O)cc1O (centres unmarked) [Compound 3, methyl 2-(2,4-dihydroxyphenyl)-5-methylhex-4-enoate]
AChE (EC 3.1.1.7)
  IC50: > 100 µM
BChE (EC 3.1.1.8) [1]; read-out: IC50 BChE
  IC50: > 100 µM

## CCOC(=O)C(CC=C(C)C)c1ccc(O)cc1O (centres unmarked) [Compound 4, ethyl 2-(2,4-dihydroxyphenyl)-5-methylhex-4-enoate]
AChE (EC 3.1.1.7)
  IC50: > 100 µM
BChE (EC 3.1.1.8) [1]; read-out: IC50 BChE
  IC50: 61 ± 3.4 µM

## CC(C)(O)CCC(=O)c1ccc(O)cc1O [Compound 5, 1-(2,4-dihydroxyphenyl)-4-hydroxy-4-methylpentan-1-one]
AChE (EC 3.1.1.7)
  IC50: > 100 µM
BChE (EC 3.1.1.8) [1]; read-out: IC50 BChE
  IC50: > 100 µM

## CC(C)=C/C=C1/C(=O)Oc2cc(O)ccc21 [Compound 6, (E)-6-hydroxy-3-(3-methylbut-2-en-1-ylidene)benzofuran-2(3H)-one]
AChE (EC 3.1.1.7)
  IC50: > 100 µM
AChE (EC 3.1.1.7); up to 100 μM where stated
  AChE inhibitory effect, in words: no obvious inhibition
BChE (EC 3.1.1.8) [1]; read-out: IC50 BChE
  IC50: 94.8 µM and > 100 µM
BChE (EC 3.1.1.8) [1]
  BChE inhibitory effect, in words: no obvious inhibition
[3]
  time to almost reach equilibrium of cis-trans photoisomerization (1 and 6, ratio approximately 1:1): ≤ 30 min

## COc1cc(O)cc(-c2cc3cc(O)c(OC)cc3o2)c1 [Compound 7, moracin B]
AChE (EC 3.1.1.7)
  IC50: > 100 µM
BChE (EC 3.1.1.8) [1]; read-out: IC50 BChE
  IC50: > 100 µM
BChE (EC 3.1.1.8) [1]
  BChE inhibitory effect, in words: did not inhibit

## CC(C)=CCc1c(O)cc(-c2cc3ccc(O)cc3o2)cc1O [Compound 8, moracin C]
AChE (EC 3.1.1.7)
  IC50: > 100 µM
BChE (EC 3.1.1.8) [1]; read-out: IC50 BChE
  IC50: 27.9 ± 3.5 µM
BChE (EC 3.1.1.8) [2]
  BChE Inhibition Type: Mixed competitive
  BChE αKi: 71.1 µM
  BChE α (thermodynamic cooperativity factor): 5.55
BChE (EC 3.1.1.8) [2]; [6]
  Ki: 12.8 µM

## CC1(C)C=Cc2c(O)cc(-c3cc4ccc(O)cc4o3)cc2O1 [Compound 9, moracin D]
AChE (EC 3.1.1.7)
  IC50: 81.2 ± 3.9 µM
BChE (EC 3.1.1.8) [1]; IC50 BChE
  IC50: 9.5 ± 3.2 µM
BChE (EC 3.1.1.8) [2]
  Ki: 5.7 µM
  BChE Inhibition Type: Mixed competitive
  BChE αKi: 25.2 µM
  BChE α (thermodynamic cooperativity factor): 4.42

## Oc1cc(O)cc(-c2cc3ccc(O)cc3o2)c1 [Compound 10, moracin M]
AChE (EC 3.1.1.7)
  IC50: > 100 µM
BChE (EC 3.1.1.8) [1]; read-out: IC50 BChE
  IC50: > 100 µM
BChE (EC 3.1.1.8) [1]
  BChE inhibitory effect, in words: did not inhibit
BChE [4]
  IC50: 38.1 µM

## CC(C)=CCc1cc2cc(-c3cc(O)cc(O)c3)oc2cc1O [Compound 11, moracin N]
AChE (EC 3.1.1.7)
  IC50: 40.5 ± 4.7 µM
BChE (EC 3.1.1.8) [1]; read-out: IC50 BChE
  IC50: 13.5 ± 1.6 µM
BChE (EC 3.1.1.8) [2]
  BChE Inhibition Type: Noncompetitive
  BChE αKi: 13.3 µM
  BChE α (thermodynamic cooperativity factor): 1.05
BChE (EC 3.1.1.8) [2]; [6]
  Ki: 12.7 µM

## CC(C)(O)C1Cc2cc3cc(-c4cc(O)cc(O)c4)oc3cc2O1 (centres unmarked) [Compound 12, moracin O]
BChE (EC 3.1.1.8) [1]
  BChE inhibitory effect, in words: neither moracin O (12) nor P (13) exhibited a significant inhibitory effect
BChE [4]
  IC50: 28.2 µM

## CC1(C)Oc2cc3oc(-c4cc(O)cc(O)c4)cc3cc2C[C@H]1O [Compound 13, moracin P]
BChE (EC 3.1.1.8) [1]
  BChE inhibitory effect, in words: neither moracin O (12) nor P (13) exhibited a significant inhibitory effect
BChE [4]
  IC50: 38 µM

## CC(C)=CCc1c(O)cc2c(c1-c1cc3ccc(O)cc3o1)C=CC(C)(C)O2 [Compound 14, cathafuran C]
AChE (EC 3.1.1.7)
  IC50: > 100 µM
BChE (EC 3.1.1.8) [1]
  selective index (AChE IC50/BChE IC50 ratio): over 38
BChE (EC 3.1.1.8) [1]; read-out: IC50 BChE
  IC50: 2.6 ± 0.2 µM
BChE (EC 3.1.1.8) [2]
  BChE Inhibition Type: Competitive
  BChE αKi: 22.7 µM
  BChE α (thermodynamic cooperativity factor): 13.35
BChE (EC 3.1.1.8) [2]; [6]
  Ki: 1.7 µM

## CC(C)=CCc1c(O)cc(O)c(CC=C(C)C)c1-c1cc2ccc(O)cc2o1 [Compound 15, mulberrofuran V]
AChE (EC 3.1.1.7)
  IC50: > 100 µM
BChE (EC 3.1.1.8) [1]; read-out: IC50 BChE
  IC50: 27.1 ± 6.8 µM

## COc1cc(O)c(CC=C(C)C)c(-c2cc3ccc(O)cc3o2)c1CC=C(C)C [Compound 16, mulberrofuran N]
AChE (EC 3.1.1.7)
  IC50: > 100 µM
BChE (EC 3.1.1.8) [1]; read-out: IC50 BChE
  IC50: 32.8 ± 4.2 µM

## CC(C)=CCCC1(C)C=Cc2c(ccc3cc(-c4cc(O)cc(O)c4CC=C(C)C)oc23)O1 (centres unmarked) [mulberrofuran D2]
BChE [5]
  IC50: 1.51 µM

## CC(C)=CCC/C(C)=C/Cc1c(O)ccc2cc(-c3cc(O)cc(O)c3CC=C(C)C)oc12 [mulberrofuran D]
BChE [5]
  IC50: 6.12 µM
